Test results taken from patent publication US11168081B2, “Alkaloid derivative having angiogenesis inhibitory effect, and pharmaceutical composition containing same” (SEOUL NATIONAL UNIVERSITY R&DB FOUNDATION, priority 2017, dated 2021).

Columns and labels:
[1] = tested on: HUVECs; assay: Scratch wound migration assay; type: cell-based, human; details: 24 hours, concentration-dependent, FIG. 1
Method: The scratch wound migration assay was performed as follows.
HUVECs were allowed to grow at 90% confluence in 12-well plates pre-coated with 0.2% gelatin and were then incubated for 24 hours. After the cells were attached, they were wounded by scratching with a 0.2 mL pipette tip. The plates were then washed with serum-free medium. Fresh medium was replaced with 2% FBS/EBM-2 medium containing various concentrations of the test compound. The cells were incubated for 24 hours, and images were recorded using an inverted phase-contrast light microscope (Olympus Optical Co. Ltd., Tokyo, Japan).

[2] = tested on: HUVECs; assay: In vitro tube formation assay; type: cell-based, human
Method: Matrigel (70 μl/well) was coated onto a 96-well plate and polymerized for 30 minutes at 37° C. under a 5% CO2 atmosphere. HUVECs (1.5×10^4 cells/well) and various concentrations of the compound were seeded onto each well of the Matrigel-coated 96-well plate. The cells were then incubated for 8 hours at 37° C. under a 5% CO2 atmosphere. The formation of endothelial cell tubular structures was visualized under an inverted microscope and photographed (Olympus Optical Co. Ltd., Tokyo, Japan). The inhibition rate of tube formation was determined using the following equation. tube formation inhibition rate (%)=[1−(average tube numbersample−average tube numberVEGF(−))/(average tube numberVEGF(+)−average tube numberVEGF(−))]×100 [Equation 1]
The IC50 value was calculated using nonlinear regression analysis using TableCurve 2D v5.01 software (Systat Software Inc., Richmond, Calif., USA).
(§1) The same experiment was carried out for sunitinib as a positive control.
The endothelial cell tubular structure formation assay was performed in the same manner as in the Experimental Example 1.

[3] = Aqueous solubility (pH-metric CheqSol); type: physicochemical; details: 0.15 M KCl, 25° C.
Method: The aqueous solubility was measured by the pH-metric CheqSol technique (Sirius Analytical Instruments Ltd.). Experiments was performed in 0.15 M KCl solution under a nitrogen atmosphere, at 25° C., using standardized 0.5 M HCl and 0.5 M KOH solutions.

[4] = Plasma stability; type: in vitro ADME, human
Method: For measuring plasma stability, the test compound (10 μM) was incubated with human plasma at 37° C. After 30 minutes, the reaction was quenched by adding acetonitrile (containing chlopropamide as internal standard). The samples were vortexed for 5 minutes and centrifuged at 14,000 rpm for 5 minutes at 4° C. Then, the supernatant was analyzed using a LC-MS/MS (Kinetex C18 column, Phenomenex, USA).

[5] = pKa; type: physicochemical
[6] = tested on: Transgenic zebrafish (flk:EGFP) embryos; assay: Animal model angiogenesis inhibition assay (diabetic retinopathy); type: in vivo; details: zebrafish larvae
Method: Transgenic zebrafish (flk:EGFP) embryos were provided by the Korea Zebrafish Oraganogenesis Muatant Bank (ZOMB, Daegu, Korea). The zebrafish embryos (3 dpf) were placed in a 12-well plate with 130 mM glucose embryonic H2O and various concentrations of the test compound. At 6 dpf, zebrafish larvae were fixed by 4% paraformaldehyde and stored overnight at 4° C. Next, the larvae were washed with distilled H2O, incubated with 10× trypsin (2.5%) for 90 minutes at 37° C. under a 5% CO2 atmosphere, and washed with distilled H2O. Then, the isolated lenses were isolated from the zebrafish larvae. Optic disc (OD) branches were visualized and photographed using a fluorescence microscope (Axiovert 200M, Carl Zeiss, Del.). The diameters of the larvae vessels were measured by ImageJ software.

[7] = tested on: HUVECs; assay: HUVEC cell growth assay (MTT); type: cell-based, human; details: Homo sapiens, HUVEC; MTT, 24 hours, in the presence of VEGF (50 ng/mL)
Method: Human umbilical vascular endothelial cells (HUVECs) were obtained from the ATCC (Rockville, Md.) and cultured in EGM-2 (Lonza, Walkersville, Md.) supplemented with 10% FBS at 37° C. under a 5% CO2 atmosphere.
Cell growth was assessed by MTT assay. HUVECs (8×10^3 cells/well) were seeded onto a 96-well plate with EGM-2 medium supplemented with 10% FBS for 24 hours. The next day, the culture medium was removed, and the cells were then incubated with serum-free medium for 12 hours. Following serum starvation, the cells were cultured in fresh 2% FBS/EBM-2 medium containing various concentrations of the test compound for 24 hours in the presence of VEGF (50 ng/mL). After the incubation, an MTT solution was added, and the plate was incubated for additional 4 hours. The formazan product was dissolved in DMSO, and the absorbance was detected at 570 nm using a VersaMax ELISA microplate reader (Molecular Devices, Sunnyvale, Calif.).
as §1

[8] = Metabolic stability; type: in vitro ADME, human
Method: The test compound (1 μM) was incubated with human liver microsomes (HLM, 0.5 mg protein/ml) for 5 minutes at 37° C. in 100 mM potassium phosphate buffer (pH 7.4). The reaction was initiated by adding NADPH solution and incubated for 30 minutes. To terminate the reaction, acetonitrile (containing chlopropamide as internal standard) was added and centrifuged at 14,000 rpm for 5 minutes at 4° C. Then, the supernatant was analyzed using a LC-MS/MS (Kinetex C18 column, Phenomenex, USA).

[9] = MDCK permeability; type: in vitro ADME, canine; details: dog, MDCK, pH 7.4; 10 μM, apical to basolateral
Method: (§2) The permeability was examined using Madin-Darby canine kidney (MDCK) cell line. The MDCK cell line was acquired from the American Type Culture Collection (Manassas, Va.). The cells were seeded in 12 well plates and allowed to grow for 7 days at 37° C. under a 5% CO2 atmosphere. The MDCKI monolayers were equilibrated for 30 minutes in transport buffer (10 mM glucose, 4 mM sodium bicarbonate, HBSS with 1 mM HEPES, pH 7.4) at 37° C. under a 5% CO2 atmosphere prior to the experiment. The permeability of the test compound was examined at 10 μM (with a final DMSO percentage of 1%) in the apical to basolateral (A-to-B) direction. The concentration was analyzed by LC-MS/MS. The apparent permeability (Papp, A-B) was calculated using the following equation 2.
(§3) wherein, dQ/dt is the rate of compound appearance in the receiver compartment (Q is the quantity of compound), C0 is the concentration in the donor compartment, and A is the surface area of the insert.

[10] = tested on: Madin-Darby canine kidney (MDCK) cell line; assay: MDCK permeability; type: in vitro ADME; details: in words
Method: as §2, §3

[11] = tested on: VEGFR2-mediated PI3K/AKT/eNOS and SRC/FAK signaling pathway; assay: Biomarker analysis (immunoblot) in VEGF-stimulated HUVECs; type: cell-based, human; details: FIG. 2
Method: The harvested cells were lysed by 2× sample loading buffer (250 mM Tris-HCl, pH 6.8; 4% SDS; 10% glycerol; 0.006% bromophenol blue; 2% β-mercaptoethanol; 50 mM sodium fluoride; and 5 mM sodium orthovanadate). The protein concentration was measured, and equal amounts of protein samples were subjected to 6-15% SDS-PAGE. The separated proteins were transferred to PVDF membranes (Millipore, Bedford, Mass.), which were then incubated with primary antibodies diluted in 2.5% BSA in TBST (1:500-1:1000) overnight at 4° C. The membranes were then washed three times with TBST and incubated with the corresponding secondary antibodies. Protein bands were detected with an enhanced chemiluminescence detection kit (Intron, Daejeon, Korea) and an LAS-4000 Imager (Fuji Film Corp., Tokyo, Japan).
The phosphorylation of VEGFR2 (Tyr1175) affects the activation of PI3K signaling, which leads to an increase in vascular permeability. In the VEGF signaling pathway, SRC kinases are downstream of VEGFR2 and regulate vascular permeability and angiogenesis. The activation of FAK is also an important contributor markedly involved in endothelial cell migration, proliferation and adherends junction integrity.

Aqueous Solubility [3]: 24 µM
plasma stability ([4]; 10 μM, human plasma, 37° C., remaining after 30 minutes): 95%
plasma stability ([4]; in words): high
pKa [5]: 9.24
Metabolic Stability ([8]; 1 μM, human liver microsomes 0.5 mg protein/ml, NADPH, 30 minutes): 31%
microsomal stability ([8]; in words, human liver microsomes): good
Papp A→B at 10 μM [9]: 11 ×10⁻⁶ cm/s
MDCK cell permeability [10]: high
Structure (SMILES): CCc1ccc2nc(C(c3ccc(OC)c(OC)c3)n3cc(CCN4CCCCC4)nn3)sc2c1 (stereo not drawn) [Compound I-7, 2-((3,4-dimethoxyphenyl)(4-(2-(piperidin-1-yl)ethyl)-1H-1,2,3-triazol-1-yl)methyl)-6-ethylbenzo[d]thiazole]
enhancement of endothelial cell migration by VEGF [1]: inhibited
enhancement of tube formation capacity by VEGF ([2]; HUVECs, concentration-dependent, FIG. 1): inhibited
IC50 ([2]; Homo sapiens, HUVEC, HUVECs on Matrigel, 8 hours, VEGF-induced tube formation): 0.631 µM
Selectivity Index (SI) ([2]; ratio of the IC50 for HUVEC cell growth to the IC50 for tube formation): 75.3
increase in hyaloid vessel diameters induced by HG ([6]; 130 mM glucose, 3 to 6 dpf, concentration-dependent, FIG. 3): suppressed
hyaloid vessel diameters in the optic disc area ([6]; high glucose, 2.5 μM): markedly reduced
IC50 [7]: 47.5 µM
activation of SRC (p-SRC)/FAK (p-FAK) ([11]; VEGF-stimulated HUVECs): inhibited
levels of VEGFR2 (p-VEGFR2) activated by VEGF ([11]; VEGF-stimulated HUVECs): suppressed
activation of PI3K (p-PI3K), AKT (p-AKT) and eNOS (p-eNOS) ([11]; pretreatment 30 minutes, VEGF (50 ng/mL) 20 minutes): significantly suppressed
